Consider 20 compounds from US8859535B2, “Hydroxy substituted isoquinolinone derivatives” (Novartis AG, priority 2011, dated 2014).

Assay [1] addresses T1, human MDM2 protein (amino acids 2-188) (Homo sapiens, UniProt Q00987).
T1 construct: human MDM2 protein (amino acids 2-188); made in house
Kind of assay: p53-MDM2 TR-FRET assay (p53-MDM2 Assay 1). The format is binding. The note with it: 1.25 nM MDM2-biotinylated, 10 nM Cy5-p53 peptide; read-out: IC50 (μM) of p53-Hdm2 inhibition (TR-FRET) Assay 1. The procedure: (§1) Time Resolved Fluorescence Energy Transfer (TR-FRET) Assay
(§2) The inhibition of p53-MDM2 and p53-MDM4 interactions is measured by time resolved fluorescence energy transfer (TR-FRET). Fluorescence energy transfer (or Foerster resonance energy transfer) describes an energy transfer between donor and acceptor fluorescent molecules. For this assay, human MDM2 protein (amino acids 2-188) and human MDM4 protein (amino acids 2-185), tagged with a C-terminal biotin moiety, are used in combination with a Europium labeled streptavidin (Perkin Elmer, Inc., Waltham, Mass., USA) serving as the donor fluorophore. The p53 derived, Cy5 labeled peptide Cy5-TFSDLWKLL (p53 aa18-26) is the energy acceptor. Upon excitation of the donor molecule at 340 nm, binding interaction between MDM2 or MDM4 and the p53 peptide induces energy transfer and enhanced response at the acceptor emission wavelength at 665 nm. Disruption of the formation of the p53-MDM2 or p53-MDM4 complex due to an inhibitor molecule binding to the p53 binding site of MDM2 or MDM4 results in increased donor emission at 620 nm. The ratiometric FRET assay readout is calculated from the raw data of the two distinct fluorescence signals measured in time resolved mode (fluorescence 665 nm/fluorescence 620 nm×1000).
(§3) After addition of 1.25 nM MDM2-biotinylated or 2.5 nM MDM4-biotinylated (internal preparations), and 0.625 nM Europium labeled streptavidin (Perkin Elmer), the solution is pre-incubated for 15 minutes at room temperature, then 10 nM Cy5-p53 peptide (internal preparation) is added before an incubation at room temperature for 15 minutes prior to reading the plate. For measurement of samples, a Victor II microplate reader (Perkin Elmer) is used with the following settings: Excitation 340 nm, Emission Donor 620 nm and Emission Acceptor 665 nm. IC50 values are calculated by curve fitting using XLfit. If not specified, reagents are purchased from Sigma-Aldrich Chemie GmBH, Buchs, Switzerland.
(§4) This assay was used to evaluate compounds displaying inhibition of p53-MDM2 interaction and p53-MDM4 interaction at IC50s of 0.005 to 50 μM (p53-MDM2 Assay 1 and p53-MDM4 Assay 1, respectively). For selected compounds displaying IC50s between […] on MDM2, a slightly modified assay is used with the following adaptations: 0.1 nM MDM2, 0.1 nM Europium labeled streptavidin and Tecan genios Pro is used as a microplate reader for the fluorescence measurements (p53-MDM2 Assay 2).

Assay [2] deals with T2, human MDM4 protein (amino acids 2-185) (Homo sapiens, UniProt O15151).
T2 construct: human MDM4 protein (amino acids 2-185); made in house
T2 sequence (O15151 2-185): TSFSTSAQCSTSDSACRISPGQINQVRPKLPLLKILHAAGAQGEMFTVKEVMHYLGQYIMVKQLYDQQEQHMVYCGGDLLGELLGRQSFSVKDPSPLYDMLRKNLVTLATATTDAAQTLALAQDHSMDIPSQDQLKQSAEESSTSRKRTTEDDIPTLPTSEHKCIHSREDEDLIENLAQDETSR
As to the kind of experiment: p53-MDM4 TR-FRET assay (p53-MDM4 Assay 1). The format is binding. Conditions: 2.5 nM MDM4-biotinylated, 10 nM Cy5-p53 peptide; read-out: IC50 (μM) of p53-Hdm4 inhibition (TR-FRET) Assay 1. On the procedure:
as §1, §2, §3, §4

T1 sequence (Q00987 2-188): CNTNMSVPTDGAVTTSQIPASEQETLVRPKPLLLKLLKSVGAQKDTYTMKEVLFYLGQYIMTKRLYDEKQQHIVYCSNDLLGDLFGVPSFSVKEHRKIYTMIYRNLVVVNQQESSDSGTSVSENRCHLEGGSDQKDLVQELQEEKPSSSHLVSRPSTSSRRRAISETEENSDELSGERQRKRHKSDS

A word on the IC50: it is the concentration that gives 50% inhibition. Regarding `COc1cc2c(cc1OC(C)C)[C@H](c1ccc(Cl)cc1)N(c1ccc(C(C)(O)C3CC(C)(C)OC(C)(C)C3)cc1)C(=O)C2` (stereo partly shown) [Example 162], the IC50 in assay [1] came out at 0.0065 µM; in assay [2] it was 5.53 µM.
Take `COc1cc2c(cc1OC(C)C)[C@H](c1ccc(Cl)cc1)N(c1ccc(C(C)(O)C3CCN(C(C)=O)CC3)cc1)C(=O)C2` (stereo partly drawn) [Example 31, (S)-2-{4-[1-(1-Acetyl-piperidin-4-yl)-1-hydroxy-ethyl]-phenyl}-1-(4-chloro-phenyl)-7-isopropoxy-6-methoxy-1,4-dihydro-2H-isoquinolin-3-one]: the IC50 stood at 0.0023 µM in assay [1] and 2.31 µM in assay [2].
For `COc1ccc(C(O)(c2ccc(N3C(=O)Cc4cc(OC)c(OC(C)C)cc4[C@@H]3c3ccc(Cl)cc3)cc2)C(F)(F)F)cc1` (stereo partly drawn) [Example 7, (S)-1-(4-Chloro-phenyl)-7-isopropoxy-6-methoxy-2-{4-[2,2,2-trifluoro-1-hydroxy-1-(4-methoxy-phenyl)-ethyl]-phenyl}-1,4-dihydro-2H-isoquinolin-3-one], the IC50 was 0.132 µM in assay [1] and 49.3 µM in assay [2].
In the case of `COc1ccc(C(C)(O)c2ccc(N3C(=O)Cc4cc(OC)c(OC(C)C)cc4[C@@H]3c3ccc(Cl)cc3)cc2)cc1` (stereo partly drawn) [Example 5, (S)-1-(4-Chloro-phenyl)-2-{4-[1-hydroxy-1-(4-methoxy-phenyl)-ethyl]-phenyl}-7-isopropoxy-6-methoxy-1,4-dihydro-2H-isoquinolin-3-one], the IC50 in assay [1] came out at 0.0082 µM; in assay [2], 10.5 µM.
Turning to `COc1cc2c(cc1OC(C)C)[C@H](c1ccc(Cl)cc1)N(c1ccc(C(C)(O)c3ccncc3)cc1)C(=O)C2` (stereo partly drawn) [Example 17, (S)-1-(4-Chloro-phenyl)-2-[4-(1-hydroxy-1-pyridin-4-yl-ethyl)-phenyl]-7-isopropoxy-6-methoxy-1,4-dihydro-2H-isoquinolin-3-one], the IC50 worked out at 0.0068 µM in assay [1] and 7.73 µM in assay [2].
For `COc1cc2c(cc1OC(C)C)[C@H](c1ccc(Cl)cc1)N(c1ccc(C(C)(O)C3CN(C)C3)cc1)C(=O)C2` (stereo partly drawn) [Example 70, (S)-1-(4-Chloro-phenyl)-2-{4-[1-hydroxy-1-(1-methyl-azetidin-3-yl)-ethyl]-phenyl}-7-isopropoxy-6-methoxy-1,4-dihydro-2H-isoquinolin-3-one], the results for the IC50 in assay [1] and in assay [2] were 0.0547 µM and 60.1 µM, respectively.
For `COc1cc2c(cc1OC(C)C)[C@H](c1ccc(Cl)cc1)N(c1ccc([C@](C)(O)C3CCN(C)CC3)cc1)C(=O)C2` (single isomer, unassigned) [Example 95], in that order: 0.129 µM and 49.9 µM.
For the compound `COc1cc2c(cc1OC(C)C)[C@H](c1ccc(Cl)cc1)N(c1ccc(C(C)(O)C3CCOCC3)cc1)C(=O)C2` (mixture of isomers) [Example 30, (S)-1-(4-Chloro-phenyl)-2-{4-[1-hydroxy-1-(tetrahydro-pyran-4-yl)-ethyl]-phenyl}-7-isopropoxy-6-methoxy-1,4-dihydro-2H-isoquinolin-3-one], the figures for the IC50 in assay [1] and in assay [2] were 0.0037 µM and 4.06 µM, respectively.
For `COc1cc2c(cc1OC(C)C)[C@H](c1ccc(Cl)cc1)N(c1ccc(C(C)(O)C3CCN(C(=O)OC(C)C)CC3)cc1)C(=O)C2` (stereo partly drawn) [Example 83, 4-(1-{4-[(S)-1-(4-Chloro-phenyl)-7-isopropoxy-6-methoxy-3-oxo-3,4-dihydro-1H-isoquinolin-2-yl]-phenyl}-1-hydroxy-ethyl)-piperidine-1-carboxylic acid isopropyl ester], the IC50 is 0.0069 µM in assay [1] and 7.54 µM in assay [2].
The corresponding values for `CCC(C)(O)c1ccc(N2C(=O)Cc3cc(OC)c(OC(C)C)cc3[C@@H]2c2ccc(Cl)cc2)cc1` (stereo partly drawn) [Example 3, (S)-1-(4-Chloro-phenyl)-2-[4-(1-hydroxy-1-methyl-propyl)-phenyl]-7-isopropoxy-6-methoxy-1,4-dihydro-2H-isoquinolin-3-one] are 0.0267 µM and 18.9 µM.
Turning to `COc1cc2c(cc1OC(C)C)[C@H](c1ccc(Cl)cc1)N(c1ccc(C(C)(O)C3CCN(C(=O)C4CC4)CC3)cc1)C(=O)C2` (stereo partly shown) [Example 80], the IC50 in assay [1] was 0.0052 µM; in assay [2], 5.11 µM.
For `COc1cc2c(cc1OC(C)C)[C@H](c1ccc(Cl)cc1)N(c1ccc(C(O)C3CCCCC3)cc1)C(=O)C2` (stereo partly drawn) [Example 8, (S)-1-(4-Chloro-phenyl)-2-[4-(cyclohexyl-hydroxy-methyl)-phenyl]-7-isopropoxy-6-methoxy-1,4-dihydro-2H-isoquinolin-3-one], the IC50 in assay [1] came out at 0.0316 µM; in assay [2], 61.3 µM.
As to `CC(C)Oc1cc2c(cc1OCc1ccccn1)CC(=O)N(c1ccc(C(C)(O)C3CCOCC3)cc1)[C@H]2c1ccc(Cl)cc1` (stereo partly drawn) [Example 146, (S)-1-(4-Chloro-phenyl)-2-{4-[1-hydroxy-1-(tetrahydro-pyran-4-yl)-ethyl]-phenyl}-7-isopropoxy-6-(pyridin-2-ylmethoxy)-1,4-dihydro-2H-isoquinolin-3-one], the IC50 in assay [1] stood at 0.005 µM; in assay [2], 1.19 µM.
Consider `COc1cc2c(cc1OC(C)C)[C@H](c1ccc(Cl)cc1)N(c1ccc(C(C)(O)C3CC[S+]([O-])CC3)cc1)C(=O)C2` (stereo partly drawn) [Example 169, (S)-1-(4-Chloro-phenyl)-2-{4-[1-hydroxy-1-(1-oxo-hexahydro-1-thiopyran-4-yl)-ethyl]-phenyl}-7-isopropoxy-6-methoxy-1,4-dihydro-2H-isoquinolin-3-one], for which the IC50 was 0.0096 µM in assay [1] and 8.3 µM in assay [2].
`COc1cc2c(cc1OC(C)C)[C@H](c1ccc(Cl)cc1)N(c1ccc(C(C)(O)C3CCN(CC(F)(F)F)CC3)cc1)C(=O)C2` (stereo partly drawn) [Example 77, (S)-1-(4-Chloro-phenyl)-2-(4-{1-hydroxy-1-[1-(2,2,2-trifluoro-ethyl)-piperidin-4-yl]-ethyl}-phenyl)-7-isopropoxy-6-methoxy-1,4-dihydro-2H-isoquinolin-3-one]: the IC50 came to 0.011 µM in assay [1] and 13.5 µM in assay [2].
For the compound `COc1cc(OC)cc(C(C)(O)c2ccc(N3C(=O)Cc4cc(OC)c(OC(C)C)cc4[C@@H]3c3ccc(Cl)cc3)cc2)c1` (stereo partly drawn) [Example 22, (S)-1-(4-Chloro-phenyl)-2-{4-[1-(3,5-dimethoxy-phenyl)-1-hydroxy-ethyl]-phenyl}-7-isopropoxy-6-methoxy-1,4-dihydro-2H-isoquinolin-3-one], the IC50 in assay [1] came out at 0.0225 µM; in assay [2], 21.7 µM.
In the case of `COc1cc2c(cc1OC(C)C)[C@H](c1ccc(Cl)cc1)N(c1ccc([C@@](C)(O)c3ccc(NC(C)=O)cc3)cc1)C(=O)C2` [Example 26, N-[4-((S)-1-{4-[(S)-1-(4-Chloro-phenyl)-7-isopropoxy-6-methoxy-3-oxo-3,4-dihydro-1H-isoquinolin-2-yl]-phenyl}-1-hydroxy-ethyl)-phenyl]-acetamide], the IC50 in assay [1] came out at 0.0043 µM; in assay [2], 8.25 µM.
For `COc1cc2c(cc1OC(C)C)[C@H](c1ccc(Cl)cc1)N(c1ccc(C3(O)CN(C(=O)C4CC4)C3)cc1)C(=O)C2` [Example 61, (S)-1-(4-Chloro-phenyl)-2-[4-(1-cyclopropanecarbonyl-3-hydroxy-azetidin-3-yl)-phenyl]-7-isopropoxy-6-methoxy-1,4-dihydro-2H-isoquinolin-3-one], in assay [1], the IC50 amounted to 0.156 µM.
Regarding `COC(=O)N1CC(O)(c2ccc(N3C(=O)Cc4cc(OC)c(OC(C)C)cc4[C@@H]3c3ccc(Cl)cc3)cc2)C1` [Example 58, 3-{4-[(S)-1-(4-Chloro-phenyl)-7-isopropoxy-6-methoxy-3-oxo-3,4-dihydro-1H-isoquinolin-2-yl]-phenyl}-3-hydroxy-azetidine-1-carboxylic acid methyl ester], in assay [1], the IC50 was found to be 0.205 µM.
Take `COc1ccc(C(O)(CO)c2ccc(N3C(=O)Cc4cc(OC)c(OC(C)C)cc4[C@@H]3c3ccc(Cl)cc3)cc2)cc1` (stereo partly drawn) [Example 44, (S)-1-(4-Chloro-phenyl)-2-{4-[1,2-dihydroxy-1-(4-methoxy-phenyl)-ethyl]-phenyl}-7-isopropoxy-6-methoxy-1,4-dihydro-2H-isoquinolin-3-one]: in assay [1], the IC50 was 0.0982 µM.
